Measured values: patent US6673827B1, “Methods of treating fungal infections with inhibitors of NAD synthetase enzyme” (priority 1999, dated 2004)
Several values for one entry are separate records, joined by “and”; a condition that tells them apart may be missing. Equal values may be shown once.

Tests used:
[1] = target: T1, NAD synthetase (recombinant protein from B. subtilis; purified) (Bacillus subtilis, UniProt P08164); assay: NAD synthetase enzyme inhibition assay (coupled enzymatic assay, HTS); type: biochemical; conditions: table of structures used in the yeast assay (Example 4)
T1 construct: made in house
T1 sequence (P08164 whole entry): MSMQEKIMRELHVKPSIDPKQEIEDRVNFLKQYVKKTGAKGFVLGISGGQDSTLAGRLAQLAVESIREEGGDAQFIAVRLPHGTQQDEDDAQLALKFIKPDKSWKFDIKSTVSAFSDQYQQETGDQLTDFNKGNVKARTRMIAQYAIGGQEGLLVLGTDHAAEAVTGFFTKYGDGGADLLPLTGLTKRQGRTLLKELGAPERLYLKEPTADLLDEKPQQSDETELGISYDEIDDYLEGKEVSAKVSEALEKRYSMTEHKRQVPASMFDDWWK

[2] = test system: Candida albicans (ATCC 10231); assay: Minimum Inhibitory Concentration (MIC) against yeast, broth dilution; type: cell-based; conditions: 37° C., 20 hours, mean of duplicate
[3] = test system: Candida tropicalis (ATCC 28707-amphotericin B-resistant); assay: as above; type: cell-based; conditions: 37° C., 20 hours, mean of duplicate
[4] = test system: Candida tropicalis (ATCC 750); assay: as above; type: cell-based; conditions: 37° C., 20 hours, mean of duplicate
Male CD-1 mice = assay: In vivo toxicity: intraperitoneal (IP) dosage in mice resulting in 50% lethality (LD50); conditions: single IP dose, observed 14 days
[5] = test system: Candida tropicalis ATCC 750; assay: In vitro study of inhibition of growth and lethality against yeast (MIC/MLC susceptibility test), isolate A; type: cell-based; conditions: Candida tropicalis, 2nd pair of lines, isolate assigned by line order
[6] = test system: Candida tropicalis ATCC 28707; assay: In vitro study of inhibition of growth and lethality against yeast (MIC/MLC susceptibility test), isolate B; type: cell-based; conditions: Candida tropicalis, 1st pair of lines, isolate assigned by line order
[7] = test system: Candida albicans KJP-000531594; assay: In vitro study of inhibition of growth and lethality against yeast (MIC/MLC susceptibility test), isolate C; type: cell-based; conditions: Candida albicans, 1st pair of lines
[8] = test system: Candida albicans LH-000664533; assay: In vitro study of inhibition of growth and lethality against yeast (MIC/MLC susceptibility test), isolate D; type: cell-based; conditions: Candida albicans, 2nd pair of lines, isolate assigned by line order
[9] = test system: Torulopsis glabrata JHC-BC9951635; assay: In vitro study of inhibition of growth and lethality against yeast (MIC/MLC susceptibility test), isolate E; type: cell-based; conditions: Torulopsis glabrata, 2nd pair of lines, isolate assigned by line order
[10] = test system: Torulopsis glabrata ERH-BC9938274; assay: In vitro study of inhibition of growth and lethality against yeast (MIC/MLC susceptibility test), isolate F; type: cell-based; conditions: Torulopsis glabrata, 1st pair of lines, isolate assigned by line order
[11] = test system: Cryptococcus neoformans DLB-1027594CNC; assay: In vitro study of inhibition of growth and lethality against yeast (MIC/MLC susceptibility test), isolate G; type: cell-based; conditions: Cryptococcus neoformans, 1st pair of lines, isolate assigned by line order
[12] = test system: Cryptococcus neoformans SLP-BC0012854; assay: In vitro study of inhibition of growth and lethality against yeast (MIC/MLC susceptibility test), isolate H; type: cell-based; conditions: Cryptococcus neoformans, 2nd pair of lines, isolate assigned by line order

C[n+]1cccc(C(=O)OCCCCCCCCn2ccc3cc(OCc4ccccc4)ccc32)c1 [Compound 769]
IC50 (μg/mL) for Inhibit. of NAD Synthetase [1]: 20 µg/mL | MIC Candida albicans (ATCC 10231) [2]: 4.7 µg/mL | MIC Candida tropicalis (ATCC 28707) [3]: 0.098 µg/mL | MIC Candida tropicalis (ATCC 750) [4]: 0.098 µg/mL | LD50 (Male CD-1 mice): 43 mg/kg | Minimum Inhibitory Conc. (MIC), 24 hr. ([5]; read at 24 hr): 1 µg/mL | Minimum Inhibitory Conc. (MIC), 48 hr. ([5]; read at 48 hr): 1 µg/mL | Minimum Lethal Conc. (MLC) [5]: 2 µg/mL | Minimum Inhibitory Conc. (MIC), 24 hr. ([6]; read at 24 hr): 0.25 µg/mL | Minimum Inhibitory Conc. (MIC), 48 hr. ([6]; read at 48 hr): 0.5 µg/mL | Minimum Lethal Conc. (MLC) [6]: 2 µg/mL | Minimum Inhibitory Conc. (MIC), 24 hr. ([7]; read at 24 hr, isolate not given, assigned by line order and MLC of Table 4B): 2 µg/mL and 1 µg/mL | Minimum Inhibitory Conc. (MIC), 48 hr. ([7]; read at 48 hr, isolate assigned by line order): 2 µg/mL and 4 µg/mL | Minimum Lethal Conc. (MLC) ([7]; isolate assigned by line order): 8 µg/mL | Minimum Inhibitory Conc. (MIC), 24 hr. ([8]; read at 24 hr): 1 µg/mL | Minimum Inhibitory Conc. (MIC), 48 hr. ([8]; read at 48 hr): 2 µg/mL | Minimum Lethal Conc. (MLC) [8]: 8 µg/mL | Minimum Inhibitory Conc. (MIC), 24 hr. ([9]; read at 24 hr): 0.5 µg/mL | Minimum Inhibitory Conc. (MIC), 48 hr. ([9]; read at 48 hr): 1 µg/mL | Minimum Lethal Conc. (MLC) [9]: 1 µg/mL | Minimum Inhibitory Conc. (MIC), 24 hr. ([10]; read at 24 hr): 1 µg/mL | Minimum Inhibitory Conc. (MIC), 48 hr. ([10]; read at 48 hr): 2 µg/mL | Minimum Lethal Conc. (MLC) [10]: 2 µg/mL | Minimum Inhibitory Conc. (MIC), 48 hr. ([11]; read at 48 hr): 0.5 µg/mL | Minimum Inhibitory Conc. (MIC), 72 hr. ([11]; read at 72 hr): 1 µg/mL | Minimum Lethal Conc. (MLC) [11]: 2 µg/mL | Minimum Inhibitory Conc. (MIC), 48 hr. ([12]; read at 48 hr): 0.5 µg/mL and 1 µg/mL | Minimum Inhibitory Conc. (MIC), 72 hr. ([12]; read at 72 hr): 0.5 µg/mL and 1 µg/mL | Minimum Lethal Conc. (MLC) [12]: 2 µg/mL
